Source: PubChem BioAssay (NCI)
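1) Cells in 96-well plates. 2) Compound, 48 h, 5 concentrations. 3) Linear interpolation between surrounding doses. 4) Unreached endpoint = highest concentration. The concentration for full growth arrest is given as TGI.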

What was measured:
Assay in all cases: inhibition of tumour cell growth, NCI panel, 48 h
786-0 renal = tested on: 786-0 renal
A498 renal = tested on: A498 renal
A549 NSCLC = tested on: A549 NSCLC
ACHN renal = tested on: ACHN renal
CCRF-CEM leukemia = tested on: CCRF-CEM leukemia
COLO 205 colon = tested on: COLO 205 colon
DLD-1 colon = tested on: DLD-1 colon
DMS 114 small cell lung = tested on: DMS 114 small cell lung
DMS 273 small cell lung = tested on: DMS 273 small cell lung
EKVX NSCLC = tested on: EKVX NSCLC
HCC-2998 colon = tested on: HCC-2998 colon
HCT-15 colon = tested on: HCT-15 colon
HL-60(TB) leukemia = tested on: HL-60(TB) leukemia
HOP-62 NSCLC = tested on: HOP-62 NSCLC
HT29 colon = tested on: HT29 colon
IGROV1 ovarian = tested on: IGROV1 ovarian
K-562 leukemia = tested on: K-562 leukemia
KM12 colon = tested on: KM12 colon
KM20L2 colon = tested on: KM20L2 colon
LOX IMVI melanoma = tested on: LOX IMVI melanoma
M19-MEL melanoma = tested on: M19-MEL melanoma
MALME-3M melanoma = tested on: MALME-3M melanoma
NCI-H226 lung = tested on: NCI-H226 lung
NCI-H23 lung = tested on: NCI-H23 lung
NCI-H460 lung = tested on: NCI-H460 lung
NCI-H522 lung = tested on: NCI-H522 lung
OVCAR-3 ovarian = tested on: OVCAR-3 ovarian
OVCAR-4 ovarian = tested on: OVCAR-4 ovarian
OVCAR-5 ovarian = tested on: OVCAR-5 ovarian
OVCAR-8 ovarian = tested on: OVCAR-8 ovarian
RPMI-8226 leukemia = tested on: RPMI-8226 leukemia
RXF 393 renal = tested on: RXF 393 renal
SF-268 CNS = tested on: SF-268 CNS
SF-295 CNS = tested on: SF-295 CNS
SF-539 CNS = tested on: SF-539 CNS
SK-MEL-2 melanoma = tested on: SK-MEL-2 melanoma
SK-MEL-28 melanoma = tested on: SK-MEL-28 melanoma
SK-MEL-5 melanoma = tested on: SK-MEL-5 melanoma
SK-OV-3 ovarian = tested on: SK-OV-3 ovarian
SN12C renal = tested on: SN12C renal
SNB-19 CNS = tested on: SNB-19 CNS
SNB-75 CNS = tested on: SNB-75 CNS
SNB-78 CNS = tested on: SNB-78 CNS
SW-620 colon = tested on: SW-620 colon
TK-10 renal = tested on: TK-10 renal
U251 CNS = tested on: U251 CNS
UACC-257 melanoma = tested on: UACC-257 melanoma
UACC-62 melanoma = tested on: UACC-62 melanoma
UO-31 renal = tested on: UO-31 renal
CAKI-1 renal = tested on: CAKI-1 renal
HCT-116 colon = tested on: HCT-116 colon
HOP-18 NSCLC = tested on: HOP-18 NSCLC
HOP-92 NSCLC = tested on: HOP-92 NSCLC
M14 melanoma = tested on: M14 melanoma
MOLT-4 leukemia = tested on: MOLT-4 leukemia
SR leukemia = tested on: SR leukemia

## O=C(Nc1ccccc1SC(/C=C/NNC1=NC(c2ccccc2)C(c2ccccc2)=NN1)c1ccccc1)c1ccc(Cl)cc1Cl (configuration not stated)
786-0 renal
  TGI: > 100 µM
A498 renal
  TGI: > 100 µM
A549 NSCLC
  TGI: > 100 µM
ACHN renal
  TGI: > 100 µM
CCRF-CEM leukemia
  TGI: > 100 µM
COLO 205 colon
  TGI: > 100 µM
DLD-1 colon
  TGI: > 100 µM
DMS 114 small cell lung
  TGI: > 100 µM
DMS 273 small cell lung
  TGI: > 100 µM
EKVX NSCLC
  TGI: > 100 µM
HCC-2998 colon
  TGI: > 100 µM
HCT-15 colon
  TGI: > 100 µM
HL-60(TB) leukemia
  TGI: > 100 µM
HOP-62 NSCLC
  TGI: 73.5 µM
HT29 colon
  TGI: > 100 µM
IGROV1 ovarian
  TGI: > 100 µM
K-562 leukemia
  TGI: > 100 µM
KM12 colon
  TGI: > 100 µM
KM20L2 colon
  TGI: > 100 µM
LOX IMVI melanoma
  TGI: > 100 µM
M19-MEL melanoma
  TGI: > 100 µM
MALME-3M melanoma
  TGI: > 100 µM
NCI-H226 lung
  TGI: 99.6 µM
NCI-H23 lung
  TGI: 55.6 µM
NCI-H460 lung
  TGI: > 100 µM
NCI-H522 lung
  TGI: > 100 µM
OVCAR-3 ovarian
  TGI: > 100 µM
OVCAR-4 ovarian
  TGI: 94.8 µM
OVCAR-5 ovarian
  TGI: > 100 µM
OVCAR-8 ovarian
  TGI: > 100 µM
RPMI-8226 leukemia
  TGI: > 100 µM
RXF 393 renal
  TGI: > 100 µM
SF-268 CNS
  TGI: > 100 µM
SF-295 CNS
  TGI: > 100 µM
SF-539 CNS
  TGI: 60.2 µM
SK-MEL-2 melanoma
  TGI: 45.6 µM
SK-MEL-28 melanoma
  TGI: > 100 µM
SK-MEL-5 melanoma
  TGI: > 100 µM
SK-OV-3 ovarian
  TGI: > 100 µM
SN12C renal
  TGI: > 100 µM
SNB-19 CNS
  TGI: > 100 µM
SNB-75 CNS
  TGI: > 100 µM
SNB-78 CNS
  TGI: > 100 µM
SW-620 colon
  TGI: > 100 µM
TK-10 renal
  TGI: > 100 µM
U251 CNS
  TGI: 64.6 µM
UACC-257 melanoma
  TGI: > 100 µM
UACC-62 melanoma
  TGI: > 100 µM
UO-31 renal
  TGI: 94.6 µM

## CN(C)CCNC(=O)C1COc2cc(-c3cc(=O)c4ccccc4o3)ccc2O1 (configuration not stated)
786-0 renal
  TGI: 36.3 µM
A498 renal
  TGI: 33.7 µM
A549 NSCLC
  TGI: 35.5 µM
ACHN renal
  TGI: 33.1 µM
CAKI-1 renal
  TGI: 38.3 µM
CCRF-CEM leukemia
  TGI: > 100 µM
COLO 205 colon
  TGI: 31.7 µM
DLD-1 colon
  TGI: > 100 µM
DMS 273 small cell lung
  TGI: 36.3 µM
EKVX NSCLC
  TGI: > 100 µM
HCC-2998 colon
  TGI: > 100 µM
HCT-116 colon
  TGI: 29.6 µM
HCT-15 colon
  TGI: > 100 µM
HL-60(TB) leukemia
  TGI: 58.9 µM
HOP-18 NSCLC
  TGI: 56 µM
HOP-62 NSCLC
  TGI: > 100 µM
HOP-92 NSCLC
  TGI: > 100 µM
HT29 colon
  TGI: 34.6 µM
IGROV1 ovarian
  TGI: 48.3 µM
K-562 leukemia
  TGI: > 100 µM
KM20L2 colon
  TGI: 56.5 µM
LOX IMVI melanoma
  TGI: 38.3 µM
M14 melanoma
  TGI: 32 µM
M19-MEL melanoma
  TGI: > 100 µM
MALME-3M melanoma
  TGI: 36.2 µM
MOLT-4 leukemia
  TGI: 40.7 µM
NCI-H226 lung
  TGI: 49 µM
NCI-H23 lung
  TGI: > 100 µM
NCI-H460 lung
  TGI: > 100 µM
NCI-H522 lung
  TGI: 31 µM
OVCAR-3 ovarian
  TGI: 43.7 µM
OVCAR-4 ovarian
  TGI: 33.2 µM
OVCAR-5 ovarian
  TGI: > 100 µM
OVCAR-8 ovarian
  TGI: 70.1 µM
RPMI-8226 leukemia
  TGI: 85.1 µM
RXF 393 renal
  TGI: 38.8 µM
SF-268 CNS
  TGI: 50.9 µM
SF-295 CNS
  TGI: 93.6 µM
SF-539 CNS
  TGI: 32.9 µM
SK-MEL-28 melanoma
  TGI: 36 µM
SK-MEL-5 melanoma
  TGI: 28.8 µM
SK-OV-3 ovarian
  TGI: 53.8 µM
SN12C renal
  TGI: 78.8 µM
SNB-19 CNS
  TGI: 57.8 µM
SNB-75 CNS
  TGI: 43.1 µM
SNB-78 CNS
  TGI: 57.8 µM
SR leukemia
  TGI: 39.5 µM
SW-620 colon
  TGI: 44.5 µM
TK-10 renal
  TGI: 75.9 µM
U251 CNS
  TGI: 40.3 µM
UACC-257 melanoma
  TGI: 34.7 µM
UACC-62 melanoma
  TGI: 34.9 µM
UO-31 renal
  TGI: > 100 µM
